Experimental data from patent publication US10259810B2, “N-sulfonylated pyrazolo[3,4-b]pyridin-6-carboxamides and method of use” (AbbVie S.à.r.l., priority 2015, dated 2019).

Experiments:
ΔF508-CFTR [1] = molecular target: T1, ΔF508-CFTR (Homo sapiens, UniProt P13569, DEL508-508); assay: CFTR cell surface levels using HRP-tagged ΔF508-CFTR expressing CFBE cells, in the presence of a co-corrector; assay type: cell-based
T1 construct: host or cells: CFBE41o-, doxycycline-inducible
Outline: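 Chemiluminescent read-out of surface HRP (15 min, dark) after PBS washes. Activity is normalized as 100×(sample−DMSO)/(3 μM co-corrector alone−DMSO).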

ΔF508-CFTR [2] = molecular target: T1, ΔF508-CFTR; assay: CFTR cell surface levels using HRP-tagged ΔF508-CFTR expressing CFBE cells, intrinsic corrector capacity; assay type: cell-based; set-up: % Activation: concentration or dose not given beside the values
Outline: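 Read-out: chemiluminescent HRP activity of ECL4-HRP-tagged ΔF508-CFTR at the cell surface, 15 min substrate in dark. Normalized as 100×(sample−DMSO)/(positive control−DMSO).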

[3] = HRP-tagged ΔF508-CFTR CFBE cells, in the presence of 3 μM co-corrector
[4] = HRP-tagged ΔF508-CFTR CFBE cells, in the presence of 3 μM co-corrector, read-out: EC50
[5] = HRP-tagged ΔF508-CFTR expressing CFBE41o- cells, compound alone (intrinsic corrector capacity), 20 hours at 33° C.
[6] = HRP-tagged ΔF508-CFTR expressing CFBE41o- cells, compound alone (intrinsic corrector capacity), 20 hours at 33° C., read-out: EC50

T1 sequence (P13569 with tags, fused parts or gaps DEL508-508): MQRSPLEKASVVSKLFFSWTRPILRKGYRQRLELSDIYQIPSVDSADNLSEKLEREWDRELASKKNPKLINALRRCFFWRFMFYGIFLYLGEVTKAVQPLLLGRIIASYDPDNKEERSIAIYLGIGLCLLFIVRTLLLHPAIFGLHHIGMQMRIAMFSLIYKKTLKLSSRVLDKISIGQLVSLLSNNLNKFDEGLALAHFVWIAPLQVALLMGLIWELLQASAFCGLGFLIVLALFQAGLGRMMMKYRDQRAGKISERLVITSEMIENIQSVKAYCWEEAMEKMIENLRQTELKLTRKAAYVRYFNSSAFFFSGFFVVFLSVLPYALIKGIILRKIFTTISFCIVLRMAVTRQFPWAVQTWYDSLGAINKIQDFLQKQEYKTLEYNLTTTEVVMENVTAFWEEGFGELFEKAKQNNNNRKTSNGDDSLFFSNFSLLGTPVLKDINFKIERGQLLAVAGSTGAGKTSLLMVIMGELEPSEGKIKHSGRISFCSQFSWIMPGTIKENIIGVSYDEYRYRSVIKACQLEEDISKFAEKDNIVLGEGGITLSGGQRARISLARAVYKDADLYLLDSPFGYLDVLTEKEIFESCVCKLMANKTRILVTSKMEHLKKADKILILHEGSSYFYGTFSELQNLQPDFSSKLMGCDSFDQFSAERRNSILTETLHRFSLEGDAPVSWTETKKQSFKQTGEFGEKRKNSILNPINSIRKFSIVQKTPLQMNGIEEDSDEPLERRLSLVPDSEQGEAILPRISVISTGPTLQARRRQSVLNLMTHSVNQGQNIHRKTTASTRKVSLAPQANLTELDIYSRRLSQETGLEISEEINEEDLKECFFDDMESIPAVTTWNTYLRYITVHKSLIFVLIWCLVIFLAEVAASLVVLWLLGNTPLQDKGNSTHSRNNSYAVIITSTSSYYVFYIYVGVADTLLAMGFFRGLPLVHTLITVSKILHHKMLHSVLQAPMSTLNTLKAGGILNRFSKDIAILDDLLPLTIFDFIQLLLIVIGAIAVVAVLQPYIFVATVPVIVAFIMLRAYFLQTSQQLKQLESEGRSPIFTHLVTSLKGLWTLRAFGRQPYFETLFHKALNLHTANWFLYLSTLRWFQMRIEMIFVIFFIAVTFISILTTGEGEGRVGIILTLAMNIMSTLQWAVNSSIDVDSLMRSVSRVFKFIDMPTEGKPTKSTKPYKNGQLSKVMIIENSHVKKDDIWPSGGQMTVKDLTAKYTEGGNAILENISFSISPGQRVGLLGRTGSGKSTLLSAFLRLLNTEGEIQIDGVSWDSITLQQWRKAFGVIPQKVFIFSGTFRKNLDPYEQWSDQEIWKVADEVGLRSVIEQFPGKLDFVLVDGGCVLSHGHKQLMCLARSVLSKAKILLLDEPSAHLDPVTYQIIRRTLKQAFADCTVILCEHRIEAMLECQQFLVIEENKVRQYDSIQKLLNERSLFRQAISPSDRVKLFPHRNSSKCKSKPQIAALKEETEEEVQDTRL

Structure (SMILES) | % Activation (ΔF508-CFTR [1]; [3]) [%] | EC50 (ΔF508-CFTR [1]; [4]) [nM] | % Activation (ΔF508-CFTR [2]; [5]) [%] | EC50 (ΔF508-CFTR [2]; [6]) [nM] | EC50 (ΔF508-CFTR [1]) [nM] | EC50 (ΔF508-CFTR [2]) [nM]
CS(=O)(=O)NC(=O)c1cc(C2CCN(CCC(F)(F)F)CC2)c2c(C3CCC3)nn(-c3ccc(F)cc3)c2n1 [Compound 603, 3-cyclobutyl-1-(4-fluorophenyl)-N-(methanesulfonyl)-4-[1-(3,3,3-trifluoropropyl)piperidin-4-yl]-1H-pyrazolo[3,4-b]pyridine-6-carboxamide] | 344.65 | 156 | 136.2 | 283 |  | 
CN(C)S(=O)(=O)NC(=O)c1cc(C2CCN(CCC(F)(F)F)CC2)c2c(C3CCC3)nn(-c3ccc(F)cc3)c2n1 [Compound 604, 3-cyclobutyl-N-(dimethylsulfamoyl)-1-(4-fluorophenyl)-4-[1-(3,3,3-trifluoropropyl)piperidin-4-yl]-1H-pyrazolo[3,4-b]pyridine-6-carboxamide] | 268.3 | 300 | 86.51 | 490 |  | 
COS(=O)(=O)NC(=O)c1cc(N2CCC(N3CCOCC3)CC2)c2c(C3CCC3)nn(-c3ccc(F)cc3)c2n1 [Compound 606, methyl {3-cyclobutyl-1-(4-fluorophenyl)-4-[4-(morpholin-4-yl)piperidin-1-yl]-1H-pyrazolo[3,4-b]pyridine-6-carbonyl}sulfamate] | 513.7 | 469 | 283.8 | 973 |  | 
COCCN1CCN(C2CCN(c3cc(C(=O)NS(=O)(=O)N(C)C)nc4c3c(C3CCC3)nn4-c3ccc(F)cc3)CC2)CC1 [Compound 607, 3-cyclobutyl-N-(dimethylsulfamoyl)-1-(4-fluorophenyl)-4-{4-[4-(2-methoxyethyl)piperazin-1-yl]piperidin-1-yl}-1H-pyrazolo[3,4-b]pyridine-6-carboxamide] | 484.3 | 667 | 272.6 | 342 |  | 
COCCN1CCN(S(=O)(=O)NC(=O)c2cc(N3CCC(COC)CC3)c3c(C4CCC4)nn(-c4ccc(F)cc4)c3n2)CC1 [Compound 610, 3-cyclobutyl-1-(4-fluorophenyl)-N-[4-(2-methoxyethyl)piperazine-1-sulfonyl]-4-[4-(methoxymethyl)piperidin-1-yl]-1H-pyrazolo[3,4-b]pyridine-6-carboxamide] | 375.5 | 119 | 182.13 | 186 |  | 
CN(C)S(=O)(=O)NC(=O)c1cc(C2CCN(C3CCOCC3)CC2)c2c(C3CCC3)nn(-c3ccc(F)cc3)c2n1 [Compound 612, 3-cyclobutyl-N-(dimethylsulfamoyl)-1-(4-fluorophenyl)-4-[1-(oxan-4-yl)piperidin-4-yl]-1H-pyrazolo[3,4-b]pyridine-6-carboxamide] | 320.8 | 3330 | 108.7 | 876 |  | 
CN(C)S(=O)(=O)NC(=O)c1cc(C2CCN(CC3CC3)CC2)c2c(C3CCC3)nn(-c3ccc(F)cc3)c2n1 [Compound 613, 3-cyclobutyl-4-[1-(cyclopropylmethyl)piperidin-4-yl]-N-(dimethylsulfamoyl)-1-(4-fluorophenyl)-1H-pyrazolo[3,4-b]pyridine-6-carboxamide] | 152.9 | ≥ 10000 | 30.09 |  |  | 
CN(C)S(=O)(=O)NC(=O)c1cc(N2CCC(N3CCN(C4COC4)CC3)CC2)c2c(C3CCC3)nn(-c3ccc(F)cc3)c2n1 [Compound 615, 3-cyclobutyl-N-(dimethylsulfamoyl)-1-(4-fluorophenyl)-4-{4-[4-(oxetan-3-yl)piperazin-1-yl]piperidin-1-yl}-1H-pyrazolo[3,4-b]pyridine-6-carboxamide] | 450.85 | 130 | 255.3 | 482 |  | 
CN(C)S(=O)(=O)NC(=O)c1cc(OCC2CCN(C3CC3)CC2)c2c(C3CCC3)nn(-c3ccc(F)cc3)c2n1 [Compound 616, 3-cyclobutyl-4-[(1-cyclopropylpiperidin-4-yl)methoxy]-N-(dimethylsulfamoyl)-1-(4-fluorophenyl)-1H-pyrazolo[3,4-b]pyridine-6-carboxamide] | 341.15 | 294 | 144.05 | 348 |  | 
CN(C)S(=O)(=O)NC(=O)c1cc(OCC2CCN(C3CCC3)CC2)c2c(C3CCC3)nn(-c3ccc(F)cc3)c2n1 [Compound 617, 3-cyclobutyl-4-[(1-cyclobutylpiperidin-4-yl)methoxy]-N-(dimethylsulfamoyl)-1-(4-fluorophenyl)-1H-pyrazolo[3,4-b]pyridine-6-carboxamide] | 324.25 | 978 | 137.1 | 871 |  | 
CN(C)S(=O)(=O)NC(=O)c1cc(OCC2CCN(C3CCCCC3)CC2)c2c(C3CCC3)nn(-c3ccc(F)cc3)c2n1 [Compound 618, 3-cyclobutyl-4-[(1-cyclohexylpiperidin-4-yl)methoxy]-N-(dimethylsulfamoyl)-1-(4-fluorophenyl)-1H-pyrazolo[3,4-b]pyridine-6-carboxamide] | 295.9 | 702 | 112.8 | 421 |  | 
CN(C)S(=O)(=O)NC(=O)c1cc(OCC2CCN(C3CCOCC3)CC2)c2c(C3CCC3)nn(-c3ccc(F)cc3)c2n1 [Compound 619, 3-cyclobutyl-N-(dimethylsulfamoyl)-1-(4-fluorophenyl)-4-{[1-(oxan-4-yl)piperidin-4-yl]methoxy}-1H-pyrazolo[3,4-b]pyridine-6-carboxamide] | 277.25 | 375 | 102.8 | 680 |  | 
CCOc1nccc(-n2nc(C3CCC3)c3c(N4CCC(N5CCOCC5)CC4)cc(C(=O)NS(=O)(=O)N(C)C)nc32)n1 [Compound 622, 3-cyclobutyl-N-(dimethylsulfamoyl)-1-(2-ethoxypyrimidin-4-yl)-4-[4-(morpholin-4-yl)piperidin-1-yl]-1H-pyrazolo[3,4-b]pyridine-6-carboxamide] | 251.25 | 309 | 89.445 | 568 |  | 
CC(C)Oc1nn(C2CCCCC2)c2nc(C(=O)NS(C)(=O)=O)cc(-c3ccc(C(=O)N4CC5CNCC5C4)cc3)c12 (centres unmarked) [Compound 631, 1-cyclohexyl-4-[4-(hexahydropyrrolo[3,4-c]pyrrole-2(1H)-carbonyl)phenyl]-N-(methanesulfonyl)-3-[(propan-2-yl)oxy]-1H-pyrazolo[3,4-b]pyridine-6-carboxamide] | 352.63 | 2990 | 122.53 | 3340 |  | 
COC1CCN(Cc2ccc(-c3cc(C(=O)NS(C)(=O)=O)nc4c3c(OC(C)C)nn4C3CCCCC3)cc2)CC1 [Compound 635, 1-cyclohexyl-N-(methanesulfonyl)-4-{4-[(4-methoxypiperidin-1-yl)methyl]phenyl}-3-[(propan-2-yl)oxy]-1H-pyrazolo[3,4-b]pyridine-6-carboxamide] | 449.25 | 73.9 | 216.38 | 155 |  | 
CC(C)Oc1nn(C2CCCCC2)c2nc(C(=O)NS(C)(=O)=O)cc(-c3ccc(CN4CC5CN(C)CC5C4)cc3)c12 (centres unmarked) [Compound 636, 1-cyclohexyl-N-(methanesulfonyl)-4-{4-[(5-methylhexahydropyrrolo[3,4-c]pyrrol-2(1H)-yl)methyl]phenyl}-3-[(propan-2-yl)oxy]-1H-pyrazolo[3,4-b]pyridine-6-carboxamide] | 388.85 | 434 | 182.7 | 573 |  | 
CC(C)Oc1nn(C2CCCCC2)c2nc(C(=O)NS(C)(=O)=O)cc(-c3ccc(C(=O)N4CC5CN(C)CC5C4)cc3)c12 (centres unmarked) [Compound 637, 1-cyclohexyl-N-(methanesulfonyl)-4-[4-(5-methylhexahydropyrrolo[3,4-c]pyrrole-2(1H)-carbonyl)phenyl]-3-[(propan-2-yl)oxy]-1H-pyrazolo[3,4-b]pyridine-6-carboxamide] | 413.4 | 971 | 191.88 | 2500 |  | 
CC(C)Oc1nn(C2CCCCC2)c2nc(C(=O)NS(C)(=O)=O)cc(-c3ccc(C4(C#N)CCN(C)CC4)cc3)c12 [Compound 639, 4-[4-(4-cyano-1-methylpiperidin-4-yl)phenyl]-1-cyclohexyl-N-(methanesulfonyl)-3-[(propan-2-yl)oxy]-1H-pyrazolo[3,4-b]pyridine-6-carboxamide] |  |  |  |  | 74.5 | 132
CC(C)Oc1nn(C2CCCCC2)c2nc(C(=O)NS(C)(=O)=O)cc(-c3ccc(C(=O)N4CC(N(C)C)C4)cc3)c12 [Compound 640, 1-cyclohexyl-4-{4-[3-(dimethylamino)azetidine-1-carbonyl]phenyl}-N-(methanesulfonyl)-3-[(propan-2-yl)oxy]-1H-pyrazolo[3,4-b]pyridine-6-carboxamide] | 416.48 | 107 | 203.62 | 175 |  | 
CC(C)Oc1nn(C2CCCCC2)c2nc(C(=O)NS(C)(=O)=O)cc(-c3ccc(CN4CCN(C)CC45COC5)cc3)c12 [Compound 641, 1-cyclohexyl-N-(methanesulfonyl)-4-{4-[(8-methyl-2-oxa-5,8-diazaspiro[3.5]nonan-5-yl)methyl]phenyl}-3-[(propan-2-yl)oxy]-1H-pyrazolo[3,4-b]pyridine-6-carboxamide] | 443.12 | 46.3 | 205.35 | 74.9 |  | 
